Laboratory results published in US9901591B2, “Paeoniflorin preparations and uses thereof for fat reduction” (priority 2008, dated 2018).
Several values for one entry are separate records, joined by “and”; a condition that tells them apart may be missing. Equal values may be shown once.

Columns and labels:
[1] = system: 3T3-L1 adipocytes; assay: Glycerol release from differentiated 3T3-L1 adipocytes (adipolysis); type: cell-based, mouse; settings: 1 umol/L PF vs media without PF, 7th day
Excerpt: The 3T3-L1 cell line is an accepted model by those of skill in the art for natural fat loss. This cell line is a substrain of Swiss 3T3 mouse cell line 3T3-L1. This cell line propagated under normal conditions has a fibroblastic phenotype. However, when treated with a combination of dexamethasone, isobutylmethylxanthine (a non-specific inhibitor of phosphodiesterases) (IBMX) and insulin, 3T3 cells adopt a rounded phenotype and accumulate lipids intracellularly in the form of fat droplets. Differentiated 3T3-L1 adipocytes were cultured in media containing 1 umol/L PF as test group, and media without PF as control. As a result of lipolysis activity, glycerol will be generated as a result of triglyceride breakdown and released into the extracellular space. Glycerol content from 3T3-L1 adipocyte cell culture media may therefore provide an indicator of adipolysis.

[2] = system: Hormone sensitive lipase (HSL); assay: Semi-quantitative RT-PCR of HSL expression in 3T3-L1 adipocytes; type: cell-based, mouse; settings: 1 mol/L PF, from the third day after exposure
Experimental: 3T3-L1 adipocytes were cultured in medium containing […] PF as a test group and medium only as the control group. Total RNA was extracted and reverse transcribed to cDNA employing conventional methods known to those of skill in the art. Primers used for polymerase chain reaction (PCR) amplification of mouse HSL primers were selected based on published sequence (NM_010719) (expected PCR fragment: 409 bp): For semi-quantitative analysis, the amplification cycles were chosen within the linear range (HSL: 24 cycles with […] at 58° C., GAPDH: 21 cycles with […] at 58° C.).

[3] = system: Adrb2; assay: Oligo GEArray microarray of obesity-related genes in 3T3-L1 adipocytes; type: cell-based, mouse; settings: for Ratio of expression signals of Adrb2 compared to control: 1 umol/L PF, control = 1
Experimental: 3T3-L1 adipocytes were cultured in medium containing 1 umol/L PF as test group and medium only as control. Total RNA was extracted and Oligo GEArray was tested using Superarray OMM-17. The GEArray includes 111 obesity-related genes that are directly involved in the regulation of energy intake and expenditure. The genes included orexigenic peptides, hormones, and receptors, anorectic peptides, hormones, receptors, and central and peripheral signaling molecules involved in energy expenditure. The increase changes or decrease changes of more than 1.5 fold are regarded meaningful according to the diagnosis discipline, as described in the insert literature of a metabolic disease/obesity gene panel product purchased from Superarray Bioscience Corporation. (Frederick, Md.). […] In the graphs, the data above the upper line and the data below the lower line show a significant change of gene expression.

[4] = system: Carboxypeptidase E (Cpe); assay: as above; type: cell-based, mouse; settings: for Ratio of expression signals of Cpe compared to control: 1 umol/L PF, control = 1
Experimental: 3T3-L1 adipocytes were cultured in medium containing 1 umol/L PF as test group and medium only as control. Total RNA was extracted and Oligo GEArray was tested using Superarray OMM-17. The GEArray includes 111 obesity-related genes that are directly involved in the regulation of energy intake and expenditure. The genes included orexigenic peptides, hormones, and receptors, anorectic peptides, hormones, receptors, and central and peripheral signaling molecules involved in energy expenditure. The increase changes or decrease changes of more than 1.5 fold are regarded meaningful according to the diagnosis discipline, as described in the insert literature of a metabolic disease/obesity gene panel product purchased from Superarray Bioscience Corporation. (Frederick, Md.).
In the graphs, the data above the upper line and the data below the lower line show a significant change of gene expression.

[5] = Targeted fat reduction with injectable PF preparation in patients; type: in vivo, human
Experimental: 1 ml of PF (1) at a concentration of 1 mol is mixed with 4 ml injectable water and 5 ml (phosphatidyl choline (PPC)) prepared from soya bean extract and 5 ml 2% lidocaine. A total of 15 ml solution. This solution is mixed together in a 20 ml syringe and the needle is changed to a small insulin needle Gauge 30×½ as shown therein before the actual injections are given. The solution is then given subcutaneously directly into the fat areas at a dose of 0.5 ml per site totaling 20 injections. These injections are spread out to cover a big surface area, e.g. could be spread out through a whole midsection (“love handle”) in case of a larger patient, or if the patient were an average size it could be spread out to cover right and left love handles in one session. For reference, please refer to the patients injected in the thigh and buttocks area, for explanation. This patient was injected with 30 smaller injections of 0.2 ml per site, and they were spread through out the whole outer and inner thigh and buttocks areas on the right side. 0.5 mg of PF was dissolved in 5 ml of injectable water rendering a concentration of 0.1 mg/ml. This was then mixed with 5 ml of Phosphatidyl Choline in a 20 ml syringe. The large gauge needle was then replaced with a smaller gauge (Gauge 27-30, in some embodiments, a 30 gauge×½) insulin needle and the 10 ml was injected into 20 different sites of a given area. 0.5 ml of the solution was injected into the stomach, with about 1 cm separating each injection site.

[6] = Fat reduction with PF/azone creme and low current in patients; type: in vivo, human
Experimental: Concentration of PF included into the topical preparation: 0.2 mg to 0.3 mg of PF were dissolved in 1 ml of azone liquid.
A low current of […] is then passed through pads placed on the skin of the desired treatment area which then drives the PF through the skin into the adipose tissues, thus allowing the PF to come in contact with the fat cells.
The present preparations may be provided in the form of a creme containing 1 ml of PF at a concentration of 1 mmol mixed with 1 ml of azone which is then massaged into the target area. Azone has been extensively studied using a range of permeants. […] This process leads to increased lipid fluidity and enhanced drug diffusion. This is the reason PF was mixed with azone. Furthermore, a low current is then passed through the tissue area, which then drives the PF through the skin into the adipose tissues. PF may in this way come in contact with fat cells. The clinical results are show below and the details of each patient is documented.

[7] = Blood indices before and after PF treatment in patients; type: in vivo, human; settings: before vs after treatment with PF
[8] = Targeted fat reduction with injectable PF preparation in patients; type: in vivo, human; settings: alternative protocol, 20 small (0.1 to 0.2 ml) injections per session, 5 sessions
[9] = per patient, number of times as in table

Compound: C[C@@]12C[C@@]3(O)O[C@@H](O1)[C@]1(COC(=O)c4ccccc4)[C@H]3C[C@@]12O[C@@H]1O[C@H](CO)[C@@H](O)[C@H](O)[C@H]1O [PF, paeoniflorin]
- release of glycerol [1]: increased the release of glycerol significantly
- expression of HSL [2]: increased the expression of HSL
- Ratio of expression signals of Adrb2 compared to control ([3]; 3 days): 0.74
- Ratio of expression signals of Adrb2 compared to control ([3]; 6 days): 1.96
- Ratio of expression signals of Adrb2 compared to control ([3]; 7 days): 7.40
- increase of Adrb2 expression ([3]; 7 days post exposure to PF): 7.4 fold
- Ratio of expression signals of Cpe compared to control ([4]; 3 days): 0.79
- Ratio of expression signals of Cpe compared to control ([4]; 6 days): 1.04
- Ratio of expression signals of Cpe compared to control ([4]; 7 days): 2.67
- increase of Cpe expression compared to the control ([4]; day 7 of exposure to PF): 2.67 fold
- weight loss ([5]; 2 sessions together with an aerobic instructor, in 2 weeks): over 3 pounds
- Size at End of Treatment, stomach area ([5]; Patient 1, 6 weeks/11 sessions, size before start 90 cm): 83 cm
- Size at End of Tx, stomach area ([5]; Patient 2, 5 weeks/9 sessions, size before start 96 cm): 90 cm
- Size at End, both upper arms ([5]; Patient 3, 1 month/8 sessions (4 per side), size before start 40 cm): 36.5 cm
- fat loss ([5]; each 10 sessions): about 7 cm
- fat loss ([5]; in 5 sessions of 20 injections of 0.5 ml): 3 cm
- sessions until a noticeable difference was seen ([5]; on average, sessions of 20 injections): 4-5 sessions
- fat loss ([5]; one patient, 10 sessions over about 6 weeks): more than 5 inches
- sessions per 1 cm of fat dissolved ([5]; stomach and thigh areas, human): 1-1.5 sessions
- fat dissolved per session ([5]; upper arms areas, human): about 1 cm
- fat lost ([5]; with 10 sessions): over 5 pounds
- AMOUNT OF REDUCTION IN CM, each side of the upper thigh ([6]; patient #3, 6 times): 2 cm from each side of the upper
- AMOUNT OF REDUCTION IN CM, left buttock ([6]; patient #4, 7 times): 9 cm from the left buttock
- AMOUNT OF REDUCTION IN CM, right buttock ([6]; patient #4, 7 times): 8 cm from the right buttock &
- AMOUNT OF REDUCTION IN CM, each leg below the knees ([6]; patient #5, 8 times): 9 cm and 10 cm
- AMOUNT OF REDUCTION IN CM, left thigh ([6]; patient #7, 9 times): 6 cm
- AMOUNT OF REDUCTION IN CM, right thigh ([6]; patient #7, 9 times): 8 cm
- AMOUNT OF REDUCTION, bra size ([6]; patient #8, 30 times): 1.5 size in bra size
- AMOUNT OF REDUCTION IN CM, love handles ([6]; patient #12, 8 times): 10 cm from love handles and
- AMOUNT OF REDUCTION IN CM, above and below the umbilicus [6, 9]: 3.5 cm above and below the
- AMOUNT OF REDUCTION IN CM, above the umbilicus [6, 9]: 7 cm and 6 cm and 10 cm above the umbilicus, and 9 cm above the umbilicus. 9 cm
- AMOUNT OF REDUCTION IN CM, below the umbilicus [6, 9]: 9 cm and 9.5 cm below the umbilicus and 6 cm below the umbilicus
- AMOUNT OF REDUCTION IN CM, midsection [6, 9]: 10 cm and 5 cm from the waist and 5 cm and 9 cm above the umbilicus. 9 cm
- blood sugar levels [7]: decreased upon treatment
- measurable fat loss [8]: 3 cm
